Assay [1] deals with AB-resistant HIV-1 (N44.3), glycan deletions N461P and N635K. Nature of the assay: Anti-HIV activity against AB-resistant HIV-1 strain in CEM cells. It is filed as cell-based. As to conditions: AB-resistant virus strain (N461P, N635K).
The subject of the next assay is HUT-78/HIV + Sup T-1. As to the kind of experiment: Giant cell formation in a co-cultivation assay HUT-78/HIV + Sup T-1. It is filed as cell-based.
The next assay has as its system HCVpp (1a). As to the kind of experiment: HCV pseudoparticle HCVpp (1a) entry into Huh7 cells, luciferase activity. It is filed as cell-based. As to conditions: for EC50: Huh7 cells, luciferase activity, mean ±SD. An excerpt:
(§1) Production of pseudoparticles (HCVpp) and cell culture infection. To produce HCVpp, 293T cells (1.2×10^6) were lipofected at a 1:2 ratio of a NLluc^+env^− reporter vector and a vector expressing the HCV envelope glycoproteins as previously described (Bertaux and Dragic, 2006). HCV envelope glycoprotein-encoding sequences corresponding to subtypes 1b and 2b were PCR-amplified from patient sera starting from the last 60 amino acids in the Core to the end of glycoprotein E2. Supernatants were collected 48 hours post lipofection, filtered (0.45μ) and stored at −80° C. until further use. HCVpp were tested by infection of Huh7 cells (5×10^4) and measuring luciferase activity (relative light units, RLU) 48 hours post infection using the Luciferase assay system according to the manufacturer's instructions.
(§2) To measure inhibition of HCVpp (1a,1b,2b) entry into Huh7 cells by CBA and polyanions, an essentially similar procedure has been used as described above for infectious HCVcc (2a).
(§3) In order to reveal whether CBA also act at the level of HCV entry, we evaluated their ability to inhibit entry of pseudoparticles comprising the HCV envelope glycoproteins E1 and E2 into Huh-7 cells.

The test system of a further assay is Influenza A H3N2. It is filed as cell-based.
In the next assay the test system is Influenza A H1N1. It is filed as cell-based.
In another assay the test system is Influenza B. It is filed as cell-based. As to conditions: MDCK cell cultures.
Another assay relates to HIV-1 (NL4.3). As to the kind of experiment: Anti-HIV activity of Alcian Blue against HIV-1 (NL4.3) in CEM cells.
The next assay has as its system HIV-1 (strain IIIB). It is filed as cell-based. As to conditions: for EC50: CEM cells.
Another assay concerns HIV-2 (strain ROD). Nature of the assay: Anti-HIV assay, inhibition of HIV-2(ROD)-induced cytopathicity in CEM cells. It is filed as cell-based. As to conditions: virus-induced cytopathicity, mean ±SD. A general note: Cytopathic effects are the visible damage that an infection or toxin causes in cultured cells.
The subject of the next assay is HCVcc (subtype 2a). Nature of the assay: Infectious HCVcc (subtype 2a) infection of Huh7 cells, luciferase activity. It is filed as cell-based, HCV. The method, then: Huh7 cells (2×10^4) were plated and 24 hours later infected with supernatants containing infectious HCVcc pre-mixed with serial dilutions of lectins or polyanions. Mannan (2.5 mg/ml; Sigma) was added to some of the mixtures prior to Huh7 infection. After 24 hours post infection, the mixture of virus and test compounds was replaced by fresh medium, cells were brought at 37° C. and luciferase activity was measured in the cell lysates 24 hours later.
The inhibitory activities of carbohydrate binding small molecules and agents against infectious HIV-1 (strain IIIB), HIV-2 (strain ROD) and HCVcc (subtype 2a) were evaluated in human T lymphocyte cells (CEM) and human hepatocellular carcinoma cells (Huh-7), respectively (Table 1). […] The effect of mannan on the antiviral activity of the CBA was investigated.

The subject of another assay is HCVpp (1b). As to the kind of experiment: HCV pseudoparticle HCVpp (1b) entry into Huh7 cells, luciferase activity. It is filed as cell-based. As to conditions: mean ±SD.
Text: as §1, §2, §3

The next assay deals with HCVpp (2b). As to the kind of experiment: HCV pseudoparticle HCVpp (2b) entry into Huh7 cells, luciferase activity. It is filed as cell-based. As to conditions: mean ±SD.
Text: as §1, §2, §3

The next assay has as its system VSVpp. It is filed as cell-based, VSV. The conditions noted are these: read-out: EC50 VSVpp (C8166).
The test system of assay [2] is HIV-1(IIIB) capture by Raji/DC-SIGN cells. As to the kind of experiment: Inhibition of HIV-1 capture by Raji/DC-SIGN cells (p24 Ag). It is filed as cell-based. The conditions noted are these: HIV-1 exposed 30 min to compound before addition to cells. How it is done: Inhibition of HIV-1 capture by Raji/DC-SIGN cells. HIV-1 particles (2.2 μg p24/ml) were exposed to serial dilutions of the test compounds (400 μl) for 30 min. Then, the drug-exposed virus suspensions (500 μl) were mixed with Raji/DC-SIGN cell suspensions (500 μl; 10^6 cells) for 60 min at 37° C. after which the cells were thoroughly washed twice with 40 ml culture medium as described above. […] The Raji/DC-SIGN cell cultures were then analysed for HIV-1 p24 Ag content.
Raji B-lymphocyte cells were modified to express DC-SIGN at their cell surface (Geijtenbeek et al., 2000; Wu et al., 2004). When Raji/DC-SIGN cells were exposed to cell-free HIV-1(IIIB) particles, they were able to efficiently capture the virus particles as evidenced by retention of p24 antigen of HIV-1 on the Raji/DC-SIGN cells (˜1200 pg p24). […] The CBA could prevent >90% of HIV-1 capture at concentrations >2 μM for GNA, HHA and CA; >10 μM for UDA and >60 μM for PRM-A.

[3] abbreviates: in the presence of mannan 2.5 mg/ml, read-out: HIV-1 EC50 +Mannan (2.5 mg/ml).
The mark [4] stands for this setting: virus-induced cytopathicity, mean ±SD, read-out: EC50 HIV-1(IIIB) (CEM).
[5] abbreviates: without mannan (Table 3), read-out: HIV-1 EC50 As such.
Where [6] appears, read: in the presence of mannan 2.5 mg/ml, read-out: HCV(2a) EC50 +Mannan (2.5 mg/ml).
Setting [7] is: luciferase activity, mean ±SD, read-out: EC50 HCV (2a) (Huh7).
Setting [8] is: without mannan (Table 3), read-out: HCV(2a) EC50 As such.

Three molecules from patent US8193157B2, “Antiviral therapies” (priority 2005, dated 2012) can be followed below.

≈ marks a conversion by molar mass, not a printed value. Read-outs that look alike come from different tables or passages of the source. Marks after values point to notes of the source that are not given here. Bounds are passed on as bounds.

Description for HIV-1 (NL4.3): Compounds were tested against HIV-1 strains (HE, NL43, MN, IIIB), HIV-2 strains (ROD, EHO, RF), and SIV (MAC251) for inhibition of virus-induced cytopathicity in MT-4 cells (or CEM or C8166 or Molt4/C8 cells), using the colorimetric test described by Pauwels et al. in J. Virol. […] For example microtiter 96-well plates containing ˜3×10^5 CEM cells/ml, infected with 100 CClD50 of HIV per ml and containing appropriate dilutions of the test compounds were used.
A rapid and automated assay procedure was used for the in vitro evaluation of anti-HIV agents. An HTLV-1 transformed T4-cell line MT-4, which was previously shown to be highly susceptible to and permissive for HIV infection, can serve as the target cell line. Inhibition of the HIV-induced cytopathogenic effect was used as the end point. The viability of both HIV- and mock-infected cells was also assessed spectrophotometrically via in situ reduction of 3(4,5-dimethylthiazol-2-yl)-2,5-diphenyltetrazolium bromide (MTT). Methods comprise for example the microscopic examination of CEM, C8166 or Molt4/C8 giant (syncytium) cell formation, after 4 to 5 days of incubation at 37° C. in a CO2-controlled humidified atmosphere. […] The percent protection achieved by the compound in HIV-infected cells is calculated by the following formula:

Take Alcian Blue: the “EC50 HIV-1R (N44.3) (CEM)” value in [1] was more than 50 µg/mL. For the same molecule, the “EC50 HUT-78/HIV + Sup T-1” value with HUT-78/HIV + Sup T-1 is 4.5 ± 1.5^c μg/ml. Moreover, in the assay on HCVpp (1a) (Alcian Blue table), the “EC50 HCVpp (1a)” value is recorded as 30^d μg/ml. Moreover, the “EC50 Influenza A H3N2” value in the assay on Influenza A H3N2 was more than 20 µg/mL. Further, the “EC50 Influenza A H1N1” value in the assay with Influenza A H1N1 is more than 20 µg/mL. For the same molecule, in the assay on Influenza B, the “EC50 Influenza B” value is more than 20 µg/mL. In the assay with HIV-1 (NL4.3), the “EC50 HIV-1 (NL4.3) (CEM)” value is 5 ± 1 µg/mL.
Consider `CN[C@@H]1[C@H](O[C@@H]2OC[C@@H](O)[C@H](O)[C@H]2O)[C@@H](O)[C@H](O[C@H]2c3cc(C)c(C(=O)N[C@H](C)C(=O)O)c(O)c3-c3c(cc4c(c3O)C(=O)c3cc(OC)cc(O)c3C4=O)[C@@H]2O)O[C@@H]1C` [PRM-A, pradimicin A, reference compound], for which the EC50 with HIV-1 (strain IIIB) (setting [3]) was 40000 ± 13000 nM; in the assay with HIV-1 (strain IIIB) (setting [4]) it was 3360 ± 1200 nM; in the assay with HIV-1 (strain IIIB) (setting [5]) it was 5300 ± 780 nM; with HIV-2 (strain ROD), 1800 nM; in the assay on HCVcc (subtype 2a) (setting [6]) it was more than 30000 nM; in the assay with HCVcc (subtype 2a) (setting [7]), 3610 ± 780 nM. In addition, the EC50 is 3610 ± 780 nM with HCVcc (subtype 2a) (setting [8]); 1170 ± 310 nM in the assay with HCVpp (1a); 1670 ± 60 nM in the assay on HCVpp (1b); 924 ± 156 nM with HCVpp (2b); more than 60000 nM with VSVpp. For the same molecule, the “concentration preventing >90% of HIV-1 capture by Raji/DC-SIGN cells” value in assay [2] is more than 60 µM. The “EC50 Influenza A H3N2” value with Influenza A H3N2 came out at 1.6 µg/mL (≈ 1.9 µM). Besides, in the assay on Influenza A H1N1, the “EC50 Influenza A H1N1” value came out at 1.9 µg/mL (≈ 2.26 µM). For the same molecule, the “EC50 Influenza B” value in the assay with Influenza B amounted to 2.4 µg/mL (≈ 2.85 µM).

B1: UDA: GlcNAc-specific plant lectin from Urtica dioica (stinging nettle) (protein, UniProt P11218 24-372, looked up)
Lectin/endochitinase 1: QRCGSQGGGGTCPALWCCSIWGWCGDSEPYCGRTCENKCWSGERSDHRCGAAVGNPPCGQDRCCSVHGWCGGGNDYCSGSKCQYRCSSSVRGPRVALSGNSTANSIGNVVVTEPLFDQMFSHRKDCPSQGFYSYHSFLVAAESFPAFGTIGDVATRKREVAAFLAHISQATSGERSDVENPHAWGLCHINTTTVTENDFCTSSDWPCAAGKKYSPRGPIQLTHNFNYGLAGQAIGEDLIQNPDLVEKDPIISFKTALWFWMSQHDNKPSCHDIVLNANSAANRIPNKGVIGNIISRAFGHDDFAVRSSSIGFYKRYCDMLGVSYGHDLKYWFDNTPSSEFQRIQMRVAA
As for B1, the EC50 in the assay with HIV-1 (strain IIIB) (setting [3]) came out at 459 nM; in the assay on HIV-1 (strain IIIB) (setting [4]), 140 ± 40 nM; in the assay on HIV-1 (strain IIIB) (setting [5]), 149 ± 40 nM; in the assay with HIV-2 (strain ROD), 391 ± 106 nM; with HCVcc (subtype 2a) (setting [6]) it was 560 ± 108 nM; in the assay with HCVcc (subtype 2a) (setting [7]), 176 ± 29 nM. Further, the EC50 in the assay with HCVcc (subtype 2a) (setting [8]) was 176 ± 29 nM; in the assay on HCVpp (1a) it was 32 ± 15 nM; in the assay with HCVpp (1b), 19 ± 22 nM; with HCVpp (2b) it was 50 ± 54 nM; in the assay with VSVpp it was more than 11000 nM. In addition, the “decrease of antiviral activity against HIV-1 in the presence of mannan” value in the assay on HIV-1 (strain IIIB) (mannan) is recorded as 3 fold. Also, the “concentration preventing >90% of HIV-1 capture by Raji/DC-SIGN cells” value in assay [2] is more than 10 µM. Further, in the assay with Influenza A H3N2, the “EC50 Influenza A H3N2” value came to 0.99 µg/mL. Moreover, the “EC50 Influenza A H1N1” value with Influenza A H1N1 came to 4.1 µg/mL.
